Source: patent US5508180A, “Biocatalytic oxidation using soybean peroxidase” (Enzymol International, Inc., priority 1994, dated 1996)

Assays:
soybean peroxidase [1] = target: T1, soybean peroxidase (Glycine max, UniProt O22443); test: Oxidation of methyl p-tolyl sulfide to sulfoxide and sulfone by soybean peroxidase; format: biochemical; details: for Absorbance Units at 308 nm: pH 2 (conversion to sulfone)
T1 construct: secreted heme glycoprotein, reported 37 kDa
Procedure: Methyl p-tolyl sulfide (MTS), and the enantiomeric oxidation products (R)-(+)-methyl tolyl sulfoxide (MTSO) and (S)-(-)-methyl tolyl sulfoxide, were purchased from Aldrich (Milwaukee, Wis). A stock solution of MTS was prepared by adding 1 g MTS to 750 ml water and heating at 60° C. for 15 min. A warm stock solution was used for all assays to maintain the substrate in solution. […] At pH 2 these peaks shift to 274 and 311 nm, respectively.
Assays with MTS were done with 120 ppu SBP and 1 mM H2 O2.
The effect of pH on the oxidation of MTS was studied to optimize the reaction. Buffers were used at the indicated pH at 25 mM concentration.
The effect of temperature on aromatic sulfide oxidation was investigated at pH 3.5 using MTS. Conditions were 120 ppu SBP, 25 mM Glycine, 2 mM MTS, 1 mM H2 O2.

soybean peroxidase [2] = target: T1, soybean peroxidase; test: Demethylation (oxidation) of methoxybenzenes by soybean peroxidase, absorbance of quinone products; format: biochemical; details: pH 2
Procedure: 0.1 ml soybean peroxidase (120 purpurogallin units/ml) stock solution was added to 3 ml veratryl alcohol solution (1 g veratryl alcohol in 750 ml water) and vortexed in a test tube. 20 μl peroxide stock solution was added, mixed and the solution poured into a 1 cm path, 4 ml quartz cuvette. Using a Shimadzu UV-160 double beam recording spectophotometer, the change in absorbance of the sample compared to a reference cuvette containing 3 ml veratryl alcohol solution only was monitored every minute by scanning wavelengths from 500 to 200 nm. The peak wavelength of 308 nm was identified as veratryl aldehyde and was used for further monitoring. The kinetics of the reaction were determined from the linear portion of the increase in absorbance.
Using assay methods described in Example 15, three methoxybenzenes were tested for oxidation by soybean peroxidase (SBP). These compounds were: 1,4-Dimethoxybenzene (DMB), 1,2,3-Trimethoxybenzene (TMB) and 1,3,5-Trimethoxybenzene (TMB). Stock solutions were prepared by heating 1 g (0.5g 1,3,5-TMB) in 750 ml water to 60 deg C on a stirring hot plate, allowing the solution to cool to room temperature and adjusting the pH to 2 with HCl. Assays were performed as described in Example 1. Initially, a scan of wavelengths from 500 to 200 nm every minute was done during each substrate oxidation to find suitable wavelengths to monitor for the corresponding quinone products.
For example, a comparison of the rates of oxidation of 1,4-dimethoxybenzene at pH 2 where the pH was adjusted with HCl in one case and with HNO3 in a second case is shown in Table 11.

T1 sequence (O22443 27-332): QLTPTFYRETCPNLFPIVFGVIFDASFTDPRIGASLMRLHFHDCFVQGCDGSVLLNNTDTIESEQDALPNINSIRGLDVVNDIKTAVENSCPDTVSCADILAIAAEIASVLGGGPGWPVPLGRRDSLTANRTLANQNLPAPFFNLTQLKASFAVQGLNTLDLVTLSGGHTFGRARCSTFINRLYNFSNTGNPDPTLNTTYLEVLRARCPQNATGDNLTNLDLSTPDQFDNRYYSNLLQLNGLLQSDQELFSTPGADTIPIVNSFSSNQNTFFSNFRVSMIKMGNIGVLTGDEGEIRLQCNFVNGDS

CSc1ccc(C)cc1 [MTS, Methyl p-tolyl sulfide]
pH optimum of oxidation of MTS to MTSO (soybean peroxidase [1]): 3.5 | dA per min at 279 nm (soybean peroxidase [1]; 25 °C, pH 3.5, 120 ppu SBP, 25 mM Glycine, 2 mM MTS, 1 mM H2O2): 0.0607 | dA per min at 279 nm (soybean peroxidase [1]; 35 °C, pH 3.5, 120 ppu SBP, 25 mM Glycine, 2 mM MTS, 1 mM H2O2): 0.0824 | dA per min at 279 nm (soybean peroxidase [1]; 45 °C, pH 3.5, 120 ppu SBP, 25 mM Glycine, 2 mM MTS, 1 mM H2O2): 0.1012 | dA per min at 279 nm (soybean peroxidase [1]; 55 °C, pH 3.5, 120 ppu SBP, 25 mM Glycine, 2 mM MTS, 1 mM H2O2): 0.1735 | dA per min at 279 nm (soybean peroxidase [1]; 65 °C, pH 3.5, 120 ppu SBP, 25 mM Glycine, 2 mM MTS, 1 mM H2O2): 0.2563 | dA per min at 279 nm (soybean peroxidase [1]; 75 °C, pH 3.5, 120 ppu SBP, 25 mM Glycine, 2 mM MTS, 1 mM H2O2): 0.1065 | dA per min at 279 nm (soybean peroxidase [1]; 85 °C, pH 3.5, 120 ppu SBP, 25 mM Glycine, 2 mM MTS, 1 mM H2O2): 0.0908 | dA per min at 279 nm (soybean peroxidase [1]; pH 1, 25 mM buffer): 0.0348 | dA per min at 279 nm (soybean peroxidase [1]; pH 2, 25 mM buffer): -0.1376 | dA per min at 279 nm (soybean peroxidase [1]; pH 3, 25 mM buffer): 0.1042 | dA per min at 279 nm (soybean peroxidase [1]; pH 3.5, 25 mM buffer): 0.218 | dA per min at 279 nm (soybean peroxidase [1]; pH 4, 25 mM buffer): 0.0893 | dA per min at 279 nm (soybean peroxidase [1]; pH 4.5, 25 mM buffer): 0.0017 | Absorbance Units at 308 nm (soybean peroxidase [1]; time of reaction 0 min): 0.21 Absorbance Units | Absorbance Units at 308 nm (soybean peroxidase [1]; time of reaction 1 min): 0.293 Absorbance Units | Absorbance Units at 308 nm (soybean peroxidase [1]; time of reaction 2 min): 0.35 Absorbance Units | Absorbance Units at 308 nm (soybean peroxidase [1]; time of reaction 3 min): 0.381 Absorbance Units | Absorbance Units at 308 nm (soybean peroxidase [1]; time of reaction 4 min): 0.401 Absorbance Units

COc1cccc(OC)c1OC [1,2,3-TMB, 1,2,3-Trimethoxybenzene]
dA per minute (289 nm) (soybean peroxidase [2]; 25 °C): 0.0147 | dA per minute (289 nm) (soybean peroxidase [2]; 35 °C): 0.0272 | dA per minute (289 nm) (soybean peroxidase [2]; 45 °C): 0.0893 | dA per minute (289 nm) (soybean peroxidase [2]; 55 °C): 1.1161 | dA per minute (289 nm) (soybean peroxidase [2]; 65 °C): 0.0301 | dA per minute (289 nm) (soybean peroxidase [2]; 75 °C): 0.0142

COc1cc(OC)cc(OC)c1 [1,3,5-TMB, 1,3,5-Trimethoxybenzene]
dA per minute (286 nm) (soybean peroxidase [2]; 35 °C): 0.0282 | dA per minute (286 nm) (soybean peroxidase [2]; 45 °C): 0.474 | dA per minute (286 nm) (soybean peroxidase [2]; 55 °C): 0.097 | dA per minute (286 nm) (soybean peroxidase [2]; 65 °C): 0.1724 | dA per minute (286 nm) (soybean peroxidase [2]; 75 °C): 0.0262
